Laboratory results as given in patent publication US20070232492A1, “Herbicidal Composition” (Ishihara Sangyo Kaisha, LTD., priority 2004, published 2007).
Read-outs that look alike come from different tables or passages of the source.

Assays:
[1] = tested on: barnyardgrass (Echinochloa oryzicola vasing); experiment: Growth inhibition of barnyardgrass in paddy soil pots, application under submerged condition, visual rating (observed value) and Colby expected value; format: in vivo; conditions: for inhibition at 100 g/ha / inhibition at 200 g/ha / inhibition at 150 g/ha / inhibition at 300 g/ha: Echinochloa oryzicola, soil, 504 h; for inhibition at 100 g/ha: 1 g/a; for inhibition at 100 g/ha / inhibition at 200 g/ha: read-out: Growth inhibition rate (%) Observed; for inhibition at 200 g/ha: 2 g/a; for inhibition at 150 g/ha: read-out: Growth inhibition rate (%) Observed, 1.5 g/a
Summary of the method: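 Barnyardgrass (Echinochloa oryzicola vasing) seeds were sown in paddy field soil in 1/10,000 are pots and kept irrigated at a water depth of 3.5 cm. Wettable powders of the active ingredients were diluted with water and applied under submerged conditions at the prescribed amounts. Growth was visually scored from 0% (as untreated) to 100% (complete kill), and expected values were calculated with Colby's formula.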

[2] = tested on: flatsedge (Cyperus serotinus); experiment: Growth inhibition of flatsedge (planted tubers) in paddy soil pots, application under submerged condition, visual rating and Colby expected value; format: in vivo
Summary of the method: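 Tubers grown in flooded paddy soil (3.5 cm water); compounds, alone or mixed, diluted in water and applied submerged at about 2.5-4 leaf stage. Growth inhibition rated visually 21-30 days later (0% untreated to 100% kill); expected mixture values by Colby equation.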

[3] = 2.0 to 2.5 leaf stage, 21 days after application
[4] = 2.8 to 3.2 leaf stage, 21 days after application, Test Examples 39-43

Structure (SMILES): CCCOCCN(C(=O)CCl)c1c(CC)cccc1CC [Compound (B3.1), pretilachlor]
- inhibition at 100 g/ha [1, 3]: 17%
- inhibition at 100 g/ha [1, 4]: 0%
- inhibition at 200 g/ha [1, 3]: 33%
- inhibition at 200 g/ha [1, 4]: 0%
- inhibition at 400 g/ha ([2]; Cyperus serotinus, soil, 720 h, 4 g/a, 2.5 to 3.0 leaf stage, 30 days after application, Test Examples 46-60, read-out: Growth inhibition rate (%) Observed): 20%

Structure (SMILES): CCS(=O)(=O)Oc1ccc2c(c1)C(C)(C)CO2 [Compound (B8.1), benfuresate]
- inhibition at 150 g/ha [1, 3]: 10%
- inhibition at 150 g/ha ([1]; 3.0 to 3.3 leaf stage, 21 days after application): 0%
- inhibition at 300 g/ha ([1]; read-out: Growth inhibition rate (%) Observed, 3 g/a, 2.0 to 2.5 leaf stage, 21 days after application): 33%
- inhibition at 300 g/ha ([1]; read-out: Growth inhibition rate (%) Observed, 3.0 g/a, 3.0 to 3.3 leaf stage, 21 days after application): 0%
- inhibition at 600 g/ha ([2]; Cyperus serotinus, soil, 720 h, read-out: Growth inhibition rate (%) Observed): 93%

Structure (SMILES): COCC(=O)OC(c1ncccc1S(=O)(=O)NC(=O)Nc1nc(OC)cc(OC)n1)C(C)F (stereo not shown) [Compound A2, flucetosulfuron]
- Growth inhibition rate (%) Observed ([1]; 0.055 g/a, 2.8 to 3.2 leaf stage, 21 days after application): 55%
- Growth inhibition rate (%) Observed ([1]; 0.083 g/a, 2.1 to 3.2 leaf stage, 21 days after application): 90%
- Growth inhibition rate (%) Observed ([1]; 0.083 g/a, 2.1 to 3.2 leaf stage, 22 days after application): 90%
- Growth inhibition rate (%) Observed ([1]; 0.083 g/a, 2.5 to 3.0 leaf stage, 22 days after application): 67%
- Growth inhibition rate (%) Observed ([1]; 0.083 g/a, 2.8 to 3.2 leaf stage, 19 days after application, Test Examples 62-65): 55%
- Growth inhibition rate (%) Observed ([1]; 0.083 g/a, 2.8 to 3.2 leaf stage, 21 days after application): 65%
- Growth inhibition rate (%) Observed ([1]; 0.083 g/a, 2.8 to 3.2 leaf stage, 21 days after application, Test Examples 39-43): 55%
- Growth inhibition rate (%) Observed ([1]; 0.11 g/a, 2.0 to 2.5 leaf stage, 21 days after application): 90%
- Growth inhibition rate (%) Observed ([1]; 0.11 g/a, 2.1 to 3.2 leaf stage, 21 days after application): 92%
- Growth inhibition rate (%) Observed ([1]; 0.11 g/a, 2.1 to 3.2 leaf stage, 22 days after application): 92%
- Growth inhibition rate (%) Observed ([1]; 0.11 g/a, 2.4 to 3.2 leaf stage, 29 days after application, Test Example 45): 96%
- Growth inhibition rate (%) Observed ([1]; 0.11 g/a, 2.5 to 3.0 leaf stage, 22 days after application): 83%
- Growth inhibition rate (%) Observed ([1]; 0.11 g/a, 2.8 to 3.2 leaf stage, 19 days after application, Test Examples 62-65): 68%
- Growth inhibition rate (%) Observed ([1]; 0.11 g/a, 2.8 to 3.2 leaf stage, 21 days after application): 75%
- Growth inhibition rate (%) Observed ([1]; 0.11 g/a, 2.8 to 3.2 leaf stage, 21 days after application, Test Examples 39-43): 70%
- Growth inhibition rate (%) Observed ([1]; 0.165 g/a, 2.0 to 2.5 leaf stage, 21 days after application): 90%
- Growth inhibition rate (%) Observed ([1]; 0.165 g/a, 2.1 to 3.2 leaf stage, 21 days after application): 96%
- Growth inhibition rate (%) Observed ([1]; 0.165 g/a, 2.1 to 3.2 leaf stage, 22 days after application): 96%
- Growth inhibition rate (%) Observed ([1]; 0.165 g/a, 2.5 to 3.0 leaf stage, 22 days after application): 89%
- Growth inhibition rate (%) Observed ([1]; 0.165 g/a, 2.8 to 3.2 leaf stage, 19 days after application, Test Examples 62-65): 73%
- Growth inhibition rate (%) Observed ([1]; 8.3 g/ha, 3 leaf stage, 22 days after application, Test Example 36): 67%
- Growth inhibition rate (%) Observed ([1]; 8.3 g/ha, 3 leaf stage, 22 days after application, Test Example 38): 83%
- Growth inhibition rate (%) Observed ([1]; 11 g/ha, 3 leaf stage, 22 days after application, Test Example 36): 83%
- Growth inhibition rate (%) Observed ([1]; 11 g/ha, 3 leaf stage, 22 days after application, Test Example 38): 96%
- Growth inhibition rate (%) Observed ([1]; 16.5 g/ha, 3 leaf stage, 22 days after application, Test Example 36): 89%
- Growth inhibition rate (%) Observed ([1]; 16.5 g/ha, 3 leaf stage, 22 days after application, Test Example 38): 98%
- Growth inhibition rate (%) Observed ([2]; 0.0275 g/a, 2.8 to 3.2 leaf stage, 29 days after application): 0%
- Growth inhibition rate (%) Observed ([2]; 0.15 g/a, 2.5 to 3.0 leaf stage, 30 days after application, Test Examples 46-60): 40%
- Growth inhibition rate (%) Observed ([2]; 0.2 g/a, 4 leaf stage, 21 days after application): 20%
- Growth inhibition rate (%) Observed ([2]; 0.4 g/a, 4 leaf stage, 21 days after application): 50%
